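Exposure lasted 48 hours, with cells grown in 96-well plates and compounds tested at five concentrations. At the GI50, growth is halved.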 The source made the active and inactive calls. Cut-off read from the data, not from the text of the source: active = GI50 up to about 1.1 µM and inactive = higher.

The text below walks through data of ChEMBL document CHEMBL1201862, “PubChem BioAssay data set” (2004).

What all share (assay): NCI-60 cell line screen, 48 h
The test system of experiment [1] is 786-0.
For experiment [2], the system named is CAKI-1.
The subject of experiment [3] is CCRF-CEM.
For experiment [4], the system named is COLO 205.
The subject of experiment [5] is EKVX.
Experiment [6] has as its system HCC 2998.
Experiment [7] has as its system HCT-15.
The subject of experiment [8] is KM12.
Experiment [9] relates to MDA-MB-231.
The subject of experiment [10] is MDA-MB-435.
Experiment [11] deals with MOLT-4.
Experiment [12] has as its system NCI/ADR-RES.
For experiment [13], the system named is OVCAR-5.
Experiment [14] concerns U-251.
The test system of experiment [15] is UACC-62.
Experiment [16] has as its system UO-31.
The test system of experiment [17] is SF-268.
The test system of experiment [18] is SNB-19.
The subject of experiment [19] is DU-145.

As for `CN(C)CCn1c(=O)c2ccc3c4c(nn3CCN(C)C)c3cc(O)ccc3n(c1=O)c24`, the GI50 was < 0.01 µM (active) in experiment [1]; 0.0501 µM (active) in [2]; < 0.032 µM (active) in [3]; 0.0706 µM (active) in [4]; 0.124 µM (active) in experiment [5]; < 0.0493 µM (active) in experiment [6]. Further, the GI50 is 0.147 µM in experiment [7]; 0.161 µM (active) in experiment [8]; 0.0536 µM (active) in experiment [9]; 0.134 µM (active) in experiment [10]; < 0.01 µM (active) in [11]; 0.783 µM (active) in [12]. Further, the GI50 is 0.0723 µM (active) in experiment [13], < 0.0348 µM (active) in [14], 0.172 µM (active) in [15] and 0.0927 µM (active) in experiment [16].

Consider `COc1ccc(-c2[nH]c3ccccc3c2CCNS(=O)(=O)c2ccc(C)cc2)cc1`, for which the GI50 in [1] was > 10 µM (inactive); in experiment [2], > 10 µM (inactive); in experiment [3], 3.72 µM (inactive); in experiment [4], 1.83 µM (inactive); in experiment [5], > 7.93 µM (inactive); in experiment [6], 9.68 µM (inactive). The GI50 was 7.6 µM in [7]; 6.82 µM (inactive) in experiment [8]; 4.21 µM (inactive) in experiment [11]; > 10 µM (inactive) in [13]; > 10 µM (inactive) in [17]; > 10 µM (inactive) in experiment [18]. Also, the GI50 in experiment [14] is 8.09 µM (inactive); in experiment [15], > 8.39 µM (inactive); in experiment [16], 4.92 µM (inactive).

With `C#CCCCC(=C)C[C@@H]1OC(=O)[C@H](C)[C@@H]1O`, the GI50 in [1], in experiment [2], in experiment [3], in experiment [4], in experiment [19] and in [5] was > 100 µM (inactive) in each case. Also, the GI50 was > 100 µM (inactive) in experiment [6]; greater than 100 µM in [7]; > 100 µM (inactive) in experiment [8]; > 100 µM (inactive) in [10]; > 100 µM (inactive) in [11]; > 100 µM (inactive) in experiment [12]. Further, the GI50 in experiment [13], in experiment [18], in experiment [14] and in experiment [16] was > 100 µM (inactive) each time.

In the case of `CCc1ccccc1NC(=O)C(=O)C(C(=O)c1ccc(OC)cc1)c1ccc(OC)cc1` (configuration not stated), the GI50 in experiment [1], in [2], in experiment [3], in experiment [4], in experiment [5] and in [6] was > 100 µM (inactive) each time. For the same compound, the GI50 was greater than 100 µM in experiment [7]; > 100 µM (inactive) in [8]; 94.2 µM (inactive) in experiment [11]; > 100 µM (inactive) in experiment [13]; > 100 µM (inactive) in experiment [17]; > 100 µM (inactive) in experiment [18]. Further, the GI50 in [14], in [15] and in [16] was > 100 µM (inactive) in each case.

`Nc1nc2c(ncn2C2OC(CO)C(O)C2O)c(=O)o1` (configuration not stated): the GI50 in experiment [1] was > 100 µM (inactive); in experiment [2], > 100 µM (inactive); in [3] it was > 23.2 µM (inactive); in experiment [4] it was > 42 µM (inactive); in experiment [19] it was > 100 µM (inactive); in [5] it was > 100 µM (inactive). The GI50 in experiment [6] is 5.82 µM (inactive); in experiment [7], 42.9 µM; in [8], > 100 µM (inactive); in experiment [13] it was > 100 µM (inactive); in experiment [17], > 100 µM (inactive); in experiment [18], > 100 µM (inactive). Moreover, the GI50 was > 100 µM (inactive) in experiment [14], > 100 µM (inactive) in [15] and > 87.1 µM (inactive) in [16].

With `Cc1nc2ccccc2c(=O)n1-c1ccccc1F`, the GI50 in experiment [1], in experiment [2], in experiment [3], in experiment [4], in experiment [5] and in experiment [6] was > 100 µM (inactive) in each case. The GI50 was greater than 100 µM in experiment [7]; > 100 µM (inactive) in experiment [8]; > 100 µM (inactive) in [11]; > 100 µM (inactive) in [13]; > 100 µM (inactive) in [17]; > 100 µM (inactive) in [18]. Further, the GI50 in [14] was > 100 µM (inactive); in [15], > 100 µM (inactive); in experiment [16] it was 74.3 µM (inactive).

As for `COC(=O)c1c(CC#N)cccc1CC#N`, the GI50 in experiment [1], in experiment [2], in experiment [3], in experiment [4], in experiment [5] and in experiment [6] was > 100 µM (inactive) throughout. Further, the GI50 in [7] was greater than 100 µM; in experiment [8], > 100 µM (inactive); in [11], > 100 µM (inactive); in [13], > 100 µM (inactive); in experiment [17], > 100 µM (inactive); in experiment [18], > 100 µM (inactive). The GI50 in experiment [14], in experiment [15] and in [16] was > 100 µM (inactive) each time.

In the case of `C=C(CO)CC(O)c1cc(OC)ccc1OC` (configuration not stated), the GI50 in [1], in [2], in [3], in [4], in [5] and in experiment [6] was > 100 µM (inactive) in each case. In addition, the GI50 in experiment [7] was greater than 100 µM; in experiment [8], > 100 µM (inactive); in experiment [11], > 100 µM (inactive); in experiment [13], > 100 µM (inactive); in [17], > 100 µM (inactive); in experiment [18] it was > 100 µM (inactive). In addition, the GI50 in experiment [14], in experiment [15] and in [16] was > 100 µM (inactive) in each case.

Regarding `OCCN1CCN2C=C(C3CCCC4N(CCO)CCN34)CCC21` (configuration not stated), the GI50 is 41.7 µM (inactive) in [1]; 48 µM (inactive) in experiment [2]; 5.56 µM (inactive) in experiment [3]; > 65.2 µM (inactive) in experiment [4]; > 69.7 µM (inactive) in experiment [5]; > 100 µM (inactive) in [6]. Moreover, the GI50 in [7] was 27.9 µM; in [8] it was > 95.7 µM (inactive); in [11] it was 13.9 µM (inactive); in [13] it was > 100 µM (inactive); in experiment [17], 49.8 µM (inactive); in [18], > 100 µM (inactive). For the same compound, the GI50 in [14] is 41.4 µM (inactive); in experiment [15], 28.1 µM (inactive); in experiment [16] it was 97.3 µM (inactive).

As to `Cc1nc(Nc2ccc(Cl)cc2)sc1C(=O)NNC(=S)NN`, the GI50 in [1] was 16.6 µM (inactive); in experiment [2], 24.7 µM (inactive); in [3] it was 29.1 µM (inactive); in [4], 21.6 µM (inactive); in experiment [5], 16.9 µM (inactive); in experiment [6], 15.5 µM (inactive). Further, the GI50 in experiment [7] was 20.4 µM; in experiment [8], 20.1 µM (inactive); in experiment [11], 21.5 µM (inactive); in [13], 16.8 µM (inactive); in [17] it was 21.1 µM (inactive); in experiment [18] it was 18.9 µM (inactive). The GI50 in [14] is 17.5 µM (inactive); in experiment [15], 17.2 µM (inactive); in experiment [16] it was 15.8 µM (inactive).

As for `Cn1nc(-c2ccccc2)c(N=[N+]=[N-])cc1=O`, the GI50 in experiment [1], in experiment [2], in experiment [3], in [4], in experiment [5] and in experiment [6] was > 100 µM (inactive) each time. Moreover, the GI50 in experiment [7] is greater than 100 µM; in experiment [8], > 100 µM (inactive); in experiment [11], > 100 µM (inactive); in experiment [13], > 100 µM (inactive); in [17], > 100 µM (inactive); in experiment [18], > 100 µM (inactive). Besides, the GI50 in experiment [14], in [15] and in experiment [16] was > 100 µM (inactive) throughout.

Take `CCCCCCCCCCCCCC(=O)OCC1OC(n2cc(F)c(=O)[nH]c2=O)C(NC(=O)OCc2ccccc2)C(OC(=O)CCCCCCCCCCCCC)C1O` (configuration not stated): the GI50 in [1], in [2], in experiment [3], in experiment [4], in [5] and in [6] was > 100 µM (inactive) in each case. Moreover, the GI50 in [7] is greater than 100 µM; in experiment [8], > 100 µM (inactive); in [11], > 100 µM (inactive); in experiment [13], 25.6 µM (inactive); in [17], > 100 µM (inactive); in [18], > 100 µM (inactive). Further, the GI50 in experiment [14], in experiment [15] and in [16] was > 100 µM (inactive) in each case.

Take `CN(C)c1ccc(/C=C2\Cc3ccccc3C2=O)cc1Br`: the GI50 in experiment [1] was 54.1 µM (inactive); in experiment [2] it was 64.1 µM (inactive); in experiment [3] it was 34.1 µM (inactive); in experiment [4], 92.9 µM (inactive); in experiment [5], 76.6 µM (inactive); in [6] it was > 100 µM (inactive). Moreover, the GI50 in experiment [7] was 35.7 µM; in experiment [8] it was 43.2 µM (inactive); in [11] it was 28.5 µM (inactive); in [13], 79.1 µM (inactive); in [17], 32.7 µM (inactive); in experiment [18], > 100 µM (inactive). For the same compound, the GI50 in [14] is 53.3 µM (inactive); in [15], 59.8 µM (inactive); in experiment [16], 36.6 µM (inactive).
